{"source": "patent US7579468B2", "about": "“Methods of modulating neurotrophin-mediated activity” (PainCeptor Pharma Corporation, priority 2005, dated 2009)", "key": {"PC12 (TrkA & p75) [1]": {"test_system": "T1, PC12 (TrkA & p75)", "T1 construct": "other: Concentration 25 μM; PC12 cells; other: Concentration 50 μM; other: PC12 cells; 125I-NGF ~0.11 nM; other: PC12 cells expressing TrkA and p75; individual experiment; fused on or other part: 125I label on NGF", "experiment": "125I-NGF binding displacement in PC12 cells", "parameters": "species or system rat", "settings": "PC12 cells expressing TrkA and p75; individual experiment", "method": "(§1) All cells were incubated at 37° C. in 5% CO2. PC12 cells were maintained in RPMI-1640 medium supplemented with 10% fetal bovine serum (FBS). A875 human melanoma cells were maintained in DMEM with 10% FBS. HEK 293 cells were stably transfected with human TrkA plasmid (see below) and maintained in DMEM with 10% FBS and G418 (600 μg/mL) for selection.\n(§2) NGF binding was evaluated using methods familiar to those who are skilled in the art. Briefly, cells expressing one or both NGF receptors (PC12: TrkA+p75; A875: p75 alone; HEK_TrkA: TrkA alone) were harvested by replacing the medium with calcium-magnesium free balanced salt (Grey's) solution and incubating at 37° C. for 15 min. For NGF binding, cells were resuspended at a concentration of 2×10^6 cells/mL in HEPES-Krebs-Ringer (HKR) buffer (10 mM HEPES; 125 mM NaCl; 4.8 mM KCl; 1.3 mM CaCl2; 1.2 mM MgSO4; 1.2 mM KH2PO4; 1 mg/ml BSA; 1 mg/ml glucose; pH 7.4) and exposed to ^125I-NGF (˜0.11 nM) in the presence or absence of varying concentrations of the compound. Non-specific binding was determined for reference by incubating ^125I-NGF with an excess of non-radioactive NGF in the absence of compound. Following a two-hour incubation period at 4° C., ^125I-NGF bound to the cells was quantified in a gamma radiation counter following separation from unbound NGF by filtration or centrifugation through glycerol (10% in HKR). Inhibition of binding was calculated as a percent of the specific binding (calculated as the differential between ^125I-NGF binding in the absence and presence of an excess of non-radioactive NGF without compound). Dose-response inhibition curves were typically generated with seven concentrations of a given compound, with three replicates for each concentration. For most compounds, multiple dose-response curves were generated."}, "PC12 (TrkA & p75) [2]": {"test_system": "T2, PC12 (TrkA & p75)", "T2 construct": "other: PC12, A875 an; fused on or other part: 125I label on NGF", "experiment": "125I-NGF binding displacement in PC12 cells", "parameters": "species or system rat", "settings": "PC12, A875 and HEK_TrkA cells taken together", "method": "as §1, §2"}, "A875: p75 alone": {"test_system": "A875: p75 alone", "experiment": "125I-NGF binding displacement in A875 cells", "parameters": "species or system human", "settings": "A875 cells expressing p75; individual experiment", "method": "as §1, §2"}, "[3]": {"test_system": "NGF-induced Erk 1/2 phosphorylation in PC12 cells", "experiment": "Erk phosphorylation in NGF-stimulated PC12 cells (Western blot)", "format": "cell-based, rat", "settings": "5 ng/mL NGF", "method": "This assay is useful for establishing that the compounds of the invention are functional NGF antagonists, not receptor agonists (an agonist could conceivably block NGF binding but actually activate the receptor). Erk 1/2 is a kinase activated down stream of TrkA and is a well studied member of the NGF-induced signal transduction cascade.\nPC12 cells expressing TrkA and p75 were acutely exposed to 5 ng/mL NGF (15 min; 37° C.; 5% CO2) that was pre-incubated (30 min; room temperature) with or without the compounds. Cells were lysed in Laemmli sample buffer (for SDS-PAGE) or a lysis buffer containing Triton X-100 (for ELISA). Following SDS-PAGE, proteins were electroblotted onto nitrocellulose and immunoprobed for phosphorylated Erk 1 and 2. Blocking and primary antibody incubations of immunoblots were performed in Tris-buffered saline-Tween (10 mM Tris, pH 8.0, 150 mM NaCl, and 0.2% Tween 20) supplemented with 5% (w/v) bovine serum albumin (BSA); secondary antibody incubations were performed in 5% (w/v) dried skim milk powder. Immunoreactive bands were detected by chemiluminescence."}, "PC12 cells": {"test_system": "PC12 cells", "experiment": "NGF-induced neurite outgrowth in PC12 cells", "format": "cell-based, rat", "settings": "4 days of exposure to NGF", "method": "This assay was run as a further functional marker of NGF antagonism and takes advantage of the differentiation of PC12 cells (neurite outgrowth) induced by NGF. Cultures of PC12 cells were grown on Terasaki plates pre-coated with poly-D-lysine. Cells were exposed to NGF (1-50 (preferably 5) ng/ml) to induce neurite outgrowth as described elsewhere [L A Greene & A S Tischler, Establishment of a noradrenergic clonal line of rat adrenal pheochromocytoma cells which respond to nerve growth factor, Proc Natl Acad Sci USA. 1976 July; 73(7): 2424-2428]. In addition to NGF, cells were exposed to varying concentration of the compounds or vehicle. Following 4 days of exposure to NGF in the presence or absence of compound, neurite outgrowth was quantified. A neurite was scored if its caliber from origin to terminal was approximately the same and the length was equal to or greater than 1.5 the cell body diameter. The number of neurite bearing cells per total number of viable cells was calculated for each condition; the number of cells with neurites in the presence of NGF (without compound exposure) was considered to represent maximal (100%) outgrowth, to which the inhibitory effect of compounds of the invention on NGF-induced outgrowth was compared."}, "Male Sprague-Dawley rats": {"test_system": "Male Sprague-Dawley rats", "experiment": "Chung or Spinal Nerve Ligation (SNL) model of neuropathic pain", "format": "in vivo, rat", "settings": "Von Frey filaments, 90 min post-treatment, 5 and 10 mg/kg i.p.", "excerpt": "The Spinal Nerve Ligation (SNL) model (Kim and Chung, Pain 1992; 50: 355) was used to induce chronic neuropathic pain. Male Sprague-Dawley rats (Harlan, Indianapolis, Ind., USA) were anesthetized with isoflurane, the left […] was removed, and the L5 and L6 spinal nerves were tightly ligated with 6-0 silk suture. The wound was then closed with internal sutures and external staples.\nMechanical allodynia testing: Pre- and post-injury baselines as well as post-treatment values (vehicle or compound-treated animals) for non-noxious mechanical sensitivity were evaluated using 8 Semmes-Weinstein filaments (Stoelting, Wood Dale, Ill., USA) with varying stiffness according to the up-down method (Chaplan et al., J Neurosci Methods 1994; 53: 55). […] The mean and standard error of the mean (SEM) were determined for each paw in each treatment group. […] Effects of compounds were evaluated two weeks after the injury. Compound or vehicle was administered (i.p. or s.c.) and effects on mechanical allodynia were measured at different time points after dosing (e.g., 30, 60 and 90 min.). […]\nData analysis: Statistical analyses were conducted using Prism™ 4.01 (GraphPad, San Diego, Calif., USA). Mechanical hypersensitivity of the injured paw was determined by comparing contralateral to ipsilateral paw values within the vehicle group at each time point. Data were analyzed using the Mann-Whitney test. […]"}}, "note": "“Also recorded” adds a separate entry of the source.", "data": [{"smiles": "CC(=O)Nc1cc2c3c(cc(NC(C)=O)cc3c1)C(=O)N(CCCC(=O)O)C2=O", "note": "[Compound 11, 4-(5,8-Bis-acetylamino-1,3-dioxo-1H,3H-benzo[de]isoquinolin-2-yl)-butyric acid]", "values": [{"measurement": "NGF binding displacement, dose-response curve", "setting": "PC12 (TrkA & p75) [1]", "value": "effectively blocks NGF binding to cells expressing TrkA and p75"}, {"measurement": "Block of NGF binding to TrkA and/or p75 (summary of FIGS. 1B, 2A, 2B, 4A, 4B, 6A, 6B, 7A, 8A, 8B)", "setting": "PC12 (TrkA & p75) [2]", "value": "effectively block NGF binding to TrkA and/or p75"}, {"measurement": "NGF binding displacement, dose-response curve", "setting": "A875: p75 alone", "value": "effectively blocks NGF binding to cells expressing p75"}, {"measurement": "Inhibition of NGF-induced Erk 1/2 phosphorylation", "setting": "[3]", "value": "inhibits NGF-induced Erk 1/2 phosphorylation in PC12 cells"}, {"measurement": "Inhibition of NGF-induced neurite outgrowth", "setting": "PC12 cells", "value": "effectively inhibit neurite outgrowth induced by NGF"}, {"measurement": "Effect on mechanical allodynia in the SNL model", "setting": "Male Sprague-Dawley rats", "value": "significant dose-dependent reversal of the mechanical allodynia; also recorded: significant antinociceptive effects"}]}]}
